Laboratory results: PubChem BioAssay (NCI)
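Interpolation was linear, between the two tested concentrations surrounding the appropriate level; five concentrations were tested over 48 hours in 96-well plates. The concentration for 50% growth inhibition is given as GI50. TGI is the concentration that stops growth completely.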

What was measured:
Assay in all cases: inhibition of tumour cell growth, NCI panel, 48 h
SK-MEL-5 melanoma = system: SK-MEL-5 melanoma
SK-MEL-28 melanoma = system: SK-MEL-28 melanoma
UACC-62 melanoma = system: UACC-62 melanoma
SN12C renal = system: SN12C renal
A549 NSCLC = system: A549 NSCLC
SW-620 colon = system: SW-620 colon
T-47D breast = system: T-47D breast
SK-OV-3 ovarian = system: SK-OV-3 ovarian
SF-539 CNS = system: SF-539 CNS
HS 578T breast = system: HS 578T breast
U251 CNS = system: U251 CNS
MDA-MB-435 = system: MDA-MB-435
NCI-H23 lung = system: NCI-H23 lung
MDA-MB-231 breast = system: MDA-MB-231 breast
PC-3 prostate = system: PC-3 prostate
EKVX NSCLC = system: EKVX NSCLC
HCC-2998 colon = system: HCC-2998 colon
HL-60(TB) leukemia = system: HL-60(TB) leukemia
IGROV1 ovarian = system: IGROV1 ovarian
OVCAR-3 ovarian = system: OVCAR-3 ovarian
HOP-92 NSCLC = system: HOP-92 NSCLC
UACC-257 melanoma = system: UACC-257 melanoma
MDA-MB-468 breast = system: MDA-MB-468 breast
CCRF-CEM leukemia = system: CCRF-CEM leukemia
SNB-75 CNS = system: SNB-75 CNS
CAKI-1 renal = system: CAKI-1 renal
NCI-H460 lung = system: NCI-H460 lung
HOP-62 NSCLC = system: HOP-62 NSCLC
OVCAR-5 ovarian = system: OVCAR-5 ovarian
786-0 renal = system: 786-0 renal
SK-MEL-2 melanoma = system: SK-MEL-2 melanoma
NCI-H226 lung = system: NCI-H226 lung
TK-10 renal = system: TK-10 renal
OVCAR-4 ovarian = system: OVCAR-4 ovarian
DU-145 prostate = system: DU-145 prostate
MCF7 breast = system: MCF7 breast
SR leukemia = system: SR leukemia
SF-295 CNS = system: SF-295 CNS
UO-31 renal = system: UO-31 renal
HT29 colon = system: HT29 colon
ACHN renal = system: ACHN renal
SNB-19 CNS = system: SNB-19 CNS
LOX IMVI melanoma = system: LOX IMVI melanoma
A498 renal = system: A498 renal
OVCAR-8 ovarian = system: OVCAR-8 ovarian
BT-549 breast = system: BT-549 breast
SF-268 CNS = system: SF-268 CNS
KM12 colon = system: KM12 colon
RXF 393 renal = system: RXF 393 renal
MALME-3M melanoma = system: MALME-3M melanoma
RPMI-8226 leukemia = system: RPMI-8226 leukemia
NCI/ADR-RES ovarian = system: NCI/ADR-RES ovarian
M14 melanoma = system: M14 melanoma
NCI-H522 lung = system: NCI-H522 lung
K-562 leukemia = system: K-562 leukemia
MOLT-4 leukemia = system: MOLT-4 leukemia
HCT-116 colon = system: HCT-116 colon
COLO 205 colon = system: COLO 205 colon
HCT-15 colon = system: HCT-15 colon

## O=C(NO)c1ccc(CNc2nc(-c3ccccc3)c3ccccc3n2)cc1
SK-MEL-5 melanoma
  GI50: 1.62 µM
  TGI: 3.32 µM
SK-MEL-28 melanoma
  GI50: 2.42 µM
  TGI: 8.17 µM
UACC-62 melanoma
  GI50: 1.34 µM
  TGI: 3.16 µM
SN12C renal
  GI50: 3.09 µM
  TGI: 12 µM
A549 NSCLC
  GI50: 3.23 µM
  TGI: > 13.4 µM
SW-620 colon
  GI50: 2.09 µM
  TGI: 5.91 µM
T-47D breast
  GI50: 2.28 µM
  TGI: 21.7 µM
SK-OV-3 ovarian
  GI50: 2.15 µM
  TGI: 6.25 µM
SF-539 CNS
  GI50: 2.77 µM
  TGI: > 11.3 µM
HS 578T breast
  GI50: 2.47 µM
  TGI: > 28 µM
U251 CNS
  GI50: 2.37 µM
  TGI: 8.78 µM
MDA-MB-435
  GI50: 2.4 µM
  TGI: > 9.06 µM
NCI-H23 lung
  GI50: 2.24 µM
  TGI: 7.72 µM
MDA-MB-231 breast
  GI50: 2.44 µM
  TGI: 8.22 µM
PC-3 prostate
  GI50: 4.84 µM
  TGI: 27.3 µM
EKVX NSCLC
  GI50: 3.59 µM
  TGI: > 17 µM
HCC-2998 colon
  GI50: 1.82 µM
  TGI: 5.63 µM
HL-60(TB) leukemia
  GI50: 3.59 µM
  TGI: > 28 µM
IGROV1 ovarian
  GI50: 2.29 µM
  TGI: 6.96 µM
OVCAR-3 ovarian
  GI50: 2.68 µM
  TGI: 8.7 µM
HOP-92 NSCLC
  GI50: 1.95 µM
  TGI: 6.6 µM
UACC-257 melanoma
  GI50: 2.02 µM
  TGI: > 16.5 µM
MDA-MB-468 breast
  GI50: 1.49 µM
  TGI: 5.41 µM
CCRF-CEM leukemia
  GI50: 2.73 µM
  TGI: > 28 µM
SNB-75 CNS
  GI50: 2.36 µM
  TGI: > 12 µM
CAKI-1 renal
  GI50: 2.5 µM
  TGI: 8.52 µM
NCI-H460 lung
  GI50: 3.04 µM
  TGI: > 17.1 µM
HOP-62 NSCLC
  GI50: 2.88 µM
  TGI: 12.2 µM
OVCAR-5 ovarian
  GI50: 1.55 µM
  TGI: 4.87 µM
786-0 renal
  GI50: 2.75 µM
  TGI: 11.8 µM
SK-MEL-2 melanoma
  GI50: 1.42 µM
  TGI: 7.54 µM
NCI-H226 lung
  GI50: 2.67 µM
  TGI: 14.6 µM
TK-10 renal
  GI50: 2.12 µM
  TGI: > 19.8 µM
OVCAR-4 ovarian
  GI50: 5.4 µM
  TGI: > 20.6 µM
DU-145 prostate
  GI50: 2.78 µM
  TGI: > 28 µM
MCF7 breast
  GI50: 3.22 µM
  TGI: > 28 µM
SR leukemia
  GI50: > 18.1 µM
  TGI: > 28 µM
SF-295 CNS
  GI50: 1.84 µM
  TGI: 4.69 µM
UO-31 renal
  GI50: 1.99 µM
  TGI: 6.71 µM
HT29 colon
  GI50: 2.46 µM
  TGI: > 23.3 µM
ACHN renal
  GI50: 2.05 µM
  TGI: 5.55 µM
SNB-19 CNS
  GI50: 2.83 µM
  TGI: 9.91 µM
LOX IMVI melanoma
  GI50: 2.08 µM
  TGI: 5.35 µM
A498 renal
  GI50: 1.68 µM
  TGI: 5.45 µM
OVCAR-8 ovarian
  GI50: 2.65 µM
  TGI: > 12.4 µM
BT-549 breast
  GI50: 3.99 µM
  TGI: 15.8 µM
SF-268 CNS
  GI50: 3.57 µM
  TGI: 15.2 µM
KM12 colon
  GI50: 3.69 µM
  TGI: > 12.5 µM
RXF 393 renal
  GI50: 1.23 µM
  TGI: 3.58 µM
MALME-3M melanoma
  GI50: 1.36 µM
  TGI: 4.72 µM
RPMI-8226 leukemia
  GI50: 2.36 µM
  TGI: > 28 µM
NCI/ADR-RES ovarian
  GI50: 0.159 µM
  TGI: 0.954 µM
M14 melanoma
  GI50: 3.2 µM
  TGI: > 13.5 µM
NCI-H522 lung
  GI50: 1.85 µM
  TGI: 8.25 µM
K-562 leukemia
  GI50: 3.05 µM
  TGI: > 28 µM
MOLT-4 leukemia
  GI50: 3.01 µM
  TGI: > 28 µM
HCT-116 colon
  GI50: 2.04 µM
  TGI: 8.01 µM
COLO 205 colon
  GI50: 1.69 µM
  TGI: 3.81 µM
HCT-15 colon
  GI50: 2.85 µM
  TGI: 9.1 µM

## CCCCSc1nc(Nc2ccc(S(N)(=O)=O)cc2)c(C#N)c(-c2ccc(Cl)cc2)n1
SK-MEL-5 melanoma
  GI50: 8.46 µM
  TGI: 33.5 µM
SK-MEL-28 melanoma
  GI50: 5.98 µM
  TGI: 31.1 µM
UACC-62 melanoma
  GI50: 2.8 µM
  TGI: 8.98 µM
SN12C renal
  GI50: 2.08 µM
  TGI: 8.71 µM
A549 NSCLC
  GI50: 2.61 µM
  TGI: 9.81 µM
SW-620 colon
  GI50: 3.3 µM
  TGI: 12.4 µM
T-47D breast
  GI50: 19.9 µM
  TGI: > 100 µM
SK-OV-3 ovarian
  GI50: 3.63 µM
  TGI: 14.1 µM
SF-539 CNS
  GI50: 1.62 µM
  TGI: 3.23 µM
HS 578T breast
  GI50: 2.46 µM
  TGI: 8.71 µM
U251 CNS
  GI50: 1.58 µM
  TGI: 3.28 µM
MDA-MB-435
  GI50: 4.01 µM
  TGI: > 100 µM
NCI-H23 lung
  GI50: 3.43 µM
  TGI: 12.4 µM
MDA-MB-231 breast
  GI50: 2.14 µM
  TGI: 5.3 µM
PC-3 prostate
  GI50: 5.39 µM
  TGI: 26 µM
EKVX NSCLC
  GI50: 3.51 µM
  TGI: 19.7 µM
HCC-2998 colon
  GI50: 6.56 µM
  TGI: 78.3 µM
HL-60(TB) leukemia
  GI50: 50.6 µM
  TGI: > 100 µM
IGROV1 ovarian
  GI50: 5.79 µM
  TGI: 41.3 µM
OVCAR-3 ovarian
  GI50: 2.23 µM
  TGI: 4.91 µM
HOP-92 NSCLC
  GI50: 1.01 µM
  TGI: 4.71 µM
UACC-257 melanoma
  GI50: 14.9 µM
  TGI: > 100 µM
MDA-MB-468 breast
  GI50: 14.5 µM
  TGI: 36.1 µM
CCRF-CEM leukemia
  GI50: 7.69 µM
  TGI: > 100 µM
SNB-75 CNS
  GI50: 1.1 µM
  TGI: 3.22 µM
CAKI-1 renal
  GI50: 1.94 µM
  TGI: 4.8 µM
NCI-H460 lung
  GI50: 2.08 µM
  TGI: 4.66 µM
HOP-62 NSCLC
  GI50: 2.18 µM
  TGI: 4.97 µM
OVCAR-5 ovarian
  GI50: 4.77 µM
  TGI: 22.9 µM
786-0 renal
  GI50: 1.98 µM
  TGI: 5.11 µM
SK-MEL-2 melanoma
  GI50: 27.6 µM
  TGI: > 100 µM
NCI-H226 lung
  GI50: 2.29 µM
  TGI: 6 µM
TK-10 renal
  GI50: 2.32 µM
  TGI: 6.86 µM
OVCAR-4 ovarian
  GI50: 1.83 µM
  TGI: 3.89 µM
DU-145 prostate
  GI50: 4.95 µM
  TGI: 18 µM
MCF7 breast
  GI50: 4.59 µM
  TGI: > 100 µM
SF-295 CNS
  GI50: 1.82 µM
  TGI: 3.78 µM
UO-31 renal
  GI50: 2 µM
  TGI: 6.33 µM
HT29 colon
  GI50: 2.73 µM
  TGI: 9.84 µM
ACHN renal
  GI50: 1.88 µM
  TGI: 3.67 µM
SNB-19 CNS
  GI50: 3.65 µM
  TGI: 15.7 µM
LOX IMVI melanoma
  GI50: 1.72 µM
  TGI: 3.33 µM
A498 renal
  GI50: 6.41 µM
  TGI: 27.8 µM
OVCAR-8 ovarian
  GI50: 2.08 µM
  TGI: 4.93 µM
BT-549 breast
  GI50: 17.9 µM
  TGI: 62 µM
SF-268 CNS
  GI50: 5.64 µM
  TGI: 42.1 µM
KM12 colon
  GI50: 6.26 µM
  TGI: 30.2 µM
RXF 393 renal
  GI50: 1.81 µM
  TGI: 5.12 µM
MALME-3M melanoma
  GI50: 3.03 µM
  TGI: 11 µM
RPMI-8226 leukemia
  GI50: 5.17 µM
  TGI: > 100 µM
NCI/ADR-RES ovarian
  GI50: 2.98 µM
  TGI: 9.58 µM
M14 melanoma
  GI50: 2.36 µM
  TGI: 6.09 µM
NCI-H522 lung
  GI50: 10.6 µM
  TGI: 70.5 µM
MOLT-4 leukemia
  GI50: 3.15 µM
  TGI: 20.1 µM
HCT-116 colon
  GI50: 2 µM
  TGI: 4.35 µM
COLO 205 colon
  GI50: 13.4 µM
  TGI: 42.9 µM
